Source: patent publication US11834451B2 (priority 2021, dated 2023)

Key:
[1] = in vitro; conditions: human
[2] = tested on: EV-D68; assay: microbe, parasite or virus in culture; type: cell-based, enterovirus D68 (EV-D68); conditions: Enterovirus D, EVD68, RD, read-out: EC50, Anti-EV-D68 US/KY/14-18953 in RD cells
[3] = tested on: EV-A71; assay: microbe, parasite or virus in culture; type: cell-based, enterovirus A71 (EV-A71); conditions: Enterovirus A, EVA71, RD, read-out: EC50, Anti-EV-A71 Tainan/4643/1998 in RD cells
[4] = tested on: CVB3 Nancy virus; assay: microbe, parasite or virus in culture; type: cell-based, coxsackievirus B3 (CVB3); conditions: Enterovirus B, CVB3, Vero, read-out: EC50, Anti-CVB3 in Vero cells
[5] = tested on: EV-D68, EV-A71, and CVB3; assay: organism not typed; type: cell-based
[6] = CC50, in RD cells (Anti-EV-A71)

| Structure (SMILES) | CC50 [1, 6] | EC50 [2] | EC50 [3] | EC50 [4] | EC50 values in words (summary across viruses) [5] | EC50 ([5]; read-out: EC50 (text summary, virus not singled out)) | CC50 ([1]; CC50, in RD cells (Anti-EV-D68)) |
| --- | --- | --- | --- | --- | --- | --- | --- |
| COCCNC(=O)c1cc(C2CC2)nc2c1cnn2C(C)C [Compound 7a, 6-cyclopropyl-N-(2-methoxyethyl)-1-(propan-2-yl)-1H-pyrazolo[3,4-b]pyridine-4-carboxamide] | 178000 nM |  |  |  |  |  |  |
| CC(C)c1cc(C(=O)NCCN)c2cnn(C(C)C)c2n1 [Compound 10e, N-(2-aminoethyl)-1,6-bis(propan-2-yl)-1H-pyrazolo[3,4-b]pyridine-4-carboxamide] | 170000 nM | 600 nM | 600 nM | 900 nM |  |  |  |
| CNCCCNC(=O)c1cc(C2CC2)nc2c1cnn2C(C)C [Compound 7m, 6-cyclopropyl-N-[3-(methylamino)propyl]-1-(propan-2-yl)-1H-pyrazolo[3,4-b]pyridine-4-carboxamide] | 183000 nM | 1700 nM | 5300 nM | 1600 nM |  |  |  |
| CC(C)n1ncc2c(C(=O)NCCN)cc(C(C)(C)C)nc21 [Compound 11b, N-(2-aminoethyl)-6-tert-butyl-1-(propan-2-yl)-1H-pyrazolo[3,4-b]pyridine-4-carboxamide] | 24600 nM | 100 nM | 200 nM | 100 nM |  |  |  |
| CCC(C)n1ncc2c(C(=O)NCCN(C)C)cc(C3CC3)nc21 (stereo not shown) [Compound 21, 1-(butan-2-yl)-6-cyclopropyl-N-[2-(dimethylamino)ethyl]-1H-pyrazolo[3,4-b]pyridine-4-carboxamide] |  | 200 nM | 100 nM | 100 nM | low single-digit or submicromolar |  |  |
| Cc1cc(C(=O)NCCN(C)C)c2cnn(C3CCCC3)c2n1 [Compound 13, 1-cyclopentyl-N-[2-(dimethylamino)ethyl]-6-methyl-1H-pyrazolo[3,4-b]pyridine-4-carboxamide] |  | 11100 nM |  |  |  |  |  |
| CC(C)n1ncc2c(C(=O)NCCN)cc(C3CC3)nc21 [Compound 7i, N-(2-aminoethyl)-6-cyclopropyl-1-(propan-2-yl)-1H-pyrazolo[3,4-b]pyridine-4-carboxamide] |  | 400 nM | 400 nM | 900 nM |  |  |  |
| Cc1nn(C(C)(C)C)c2nc(C3CC3)cc(C(=O)NCCN(C)C)c12 [Compound 18a, 1-tert-butyl-6-cyclopropyl-N-[2-(dimethylamino)ethyl]-3-methyl-1H-pyrazolo[3,4-b]pyridine-4-carboxamide] | 45200 nM | 800 nM | 3500 nM | 1800 nM |  |  |  |
| CC(C)n1ncc2c(C(=O)NCCN(C)C)cc(C(C)(C)C)nc21 [Compound 11a, 6-tert-butyl-N-[2-(dimethylamino)ethyl]-1-(propan-2-yl)-1H-pyrazolo[3,4-b]pyridine-4-carboxamide] | 31400 nM | 100 nM | 40 nM | 100 nM |  |  |  |
| CC(C)n1ncc2c(C(=O)NC3CCN(C)C3)cc(C3CC3)nc21 (stereo not shown) [Compound 7g, 6-cyclopropyl-N-(1-methylpyrrolidin-3-yl)-1-(propan-2-yl)-1H-pyrazolo[3,4-b]pyridine-4-carboxamide] | 20700 nM | 100 nM | 100 nM | 100 nM |  | 100 nM | 20700 nM |
| CC(C1CC1)n1ncc2c(C(=O)NCCN(C)C)cc(C3CC3)nc21 (stereo not shown) [Compound 22, 6-cyclopropyl-1-(1-cyclopropylethyl)-N-[2-(dimethylamino)ethyl]-1H-pyrazolo[3,4-b]pyridine-4-carboxamide] |  | 700 nM | 200 nM | 1900 nM | low single-digit or submicromolar |  |  |
| CC(CN)NC(=O)c1cc(C(C)C)nc2c1cnn2C(C)C (stereo not shown) [Compound 10f, N-(1-aminopropan-2-yl)-1,6-bis(propan-2-yl)-1H-pyrazolo[3,4-b]pyridine-4-carboxamide] | 118000 nM | 400 nM | 500 nM | 600 nM |  |  |  |
| CC(CN)NC(=O)c1cc(C2CC2)nc2c1cnn2C(C)C (stereo not shown) [Compound 7j, N-(1-aminopropan-2-yl)-6-cyclopropyl-1-(propan-2-yl)-1H-pyrazolo[3,4-b]pyridine-4-carboxamide] |  | 300 nM | 600 nM | 300 nM |  |  |  |
| CCN(CC)CCNC(=O)c1cc(C2CC2)nc2c1cnn2C(C)C [Compound 7c, 6-cyclopropyl-N-[2-(diethylamino)ethyl]-1-(propan-2-yl)-1H-pyrazolo[3,4-b]pyridine-4-carboxamide] |  | 400 nM | 300 nM | 500 nM | submicromolar |  |  |
| CCN(CC)CCCNC(=O)c1cc(C2CC2)nc2c1cnn2C(C)C [Compound 7k, 6-cyclopropyl-N-[3-(diethylamino)propyl]-1-(propan-2-yl)-1H-pyrazolo[3,4-b]pyridine-4-carboxamide] |  | 1900 nM | 6100 nM | 1700 nM |  |  |  |
| CCCn1ncc2c(C(=O)NCCN(C)C)cc(C3CC3)nc21 [Compound 20, 6-cyclopropyl-N-[2-(dimethylamino)ethyl]-1-propyl-1H-pyrazolo[3,4-b]pyridine-4-carboxamide] | 57700 nM | 1200 nM | 2000 nM | 2000 nM | low single-digit or submicromolar |  |  |
| CC(C)n1ncc2c(C(=O)NC3CNC3)cc(C3CC3)nc21 [Compound 7e, N-(azetidin-3-yl)-6-cyclopropyl-1-(propan-2-yl)-1H-pyrazolo[3,4-b]pyridine-4-carboxamide] |  | 1400 nM |  |  |  |  |  |
| CC(C)n1ncc2c(C(=O)NCCN3CCCC3)cc(C3CC3)nc21 [Compound 7b, 6-cyclopropyl-1-(propan-2-yl)-N-[2-(pyrrolidin-1-yl)ethyl]-1H-pyrazolo[3,4-b]pyridine-4-carboxamide] | 46500 nM | 100 nM | 200 nM | 200 nM |  |  |  |
| CNCCNC(=O)c1cc(C2CC2)nc2c1c(C)nn2C(C)(C)C [Compound 18b, 1-tert-butyl-6-cyclopropyl-3-methyl-N-[2-(methylamino)ethyl]-1H-pyrazolo[3,4-b]pyridine-4-carboxamide] |  | 1100 nM | 8400 nM | 2900 nM |  |  |  |
| CCCn1ncc2c(C(=O)NCCN(C)C)cc(C)nc21 [Compound 14, N-[2-(dimethylamino)ethyl]-6-methyl-1-propyl-1H-pyrazolo[3,4-b]pyridine-4-carboxamide] |  | 48400 nM |  |  |  |  |  |
